Results reported in US12564595B2, “Prophylactic and therapeutic pharmaceutical agent for HIV infectious diseases characterized by comprising combination of integrase inhibitor and anti-HIV agent” (Shionogi & Co., Ltd., priority 2019, dated 2026).

Tests used:
[1] = Test Example 8: metabolic stability test; assay type: in vitro ADME, human
Protocol: The extent of metabolization of the compound according to the present invention in the liver was evaluated by reacting commercially available pooled human liver microsomes with the compound according to the present invention for a fixed time and calculating the remaining percentage by comparing the reaction sample with an unreacted sample.
The reaction (oxidative reaction) was conducted for 0 min or 30 min at 37° C. in the presence of 1 mmol/L of NADPH, in a 0.2 mL buffer solution containing 0.5 mg of human liver microsome protein/mL (50 mmol/L Tris-HCl pH 7.4, 150 mmol/L potassium chloride, 10 mmol/L magnesium chloride). After the reaction, 50 μL of reaction liquid were added to 100 μL of methanol/acetonitrile=1/1 (v/v) solution, mixed, and centrifuged for 15 minutes at 3000 rpm. The compound according to the present invention in the centrifuged supernatant was quantified using LC/MS/MS or solid phase extraction (SPE)/MS; the residual amount of the compound according to the present invention after the reaction was calculated, taking the amount of the compound at the 0 min reaction point as 100%.

[2] = tested on: HIV mutant strain 1 (E138K/G140S/Q148H/N155H); assay: Test Example 2: resistance evaluation test (HeLa-CD4 reporter), mutant strain 1; assay type: cell-based; conditions: FC=EC50 of mutant strain/EC50 of wild strain; HeLa-CD4 cells
Protocol: (§1) A serial dilution series of test samples in 96-well microplates was prepared (50 […]).
(§2) 2.5×10^4/mL of HeLa-CD4 cell suspension was dispensed into each of the microplates containing test sample, in the amount of 100 μL/well, and HIV virus liquid (wild strain and mutant strain) was then dispensed in an amount of 50 μL/well. Mixing was performed using a plate mixer and culturing was performed for three days in a CO2 incubator. After removing the cultured supernatant of each well by suction, 100 μL of the cell solution buffer in the reporter measurement kit was dispensed thereto, and freezing was conducted in a refrigerator (−80° C.). The plates frozen in the refrigerator were defrosted at room temperature, then mixed using a plate mixer and centrifuged for 5 min at 1,200 rpm. The supernatant of each well was divided to 96-well microplates (BLACK) in the amount of 20 μL in each case. The chemiluminescence reagent in the reporter assay kit was dispensed in the amount of 100 μL in each case, and, after reacting for about 1 h at room temperature, the amount of luminescence was measured using a MicroBeta TRILUX.
(§3) The degree of resistance (fold change (FC)) of each mutant strain was also calculated using the following formula. FC=EC50 of mutant strain/EC50 of wild strain (Results)
(§4) The results of the example compounds relating to formula (I) of (A) are shown below. The […] in respect of mutant strain 1 (E138K/G140S/Q148H/N155H) and the FC in respect of mutant strain 2 (E92Q/E138T/G140S/Q148H) are shown in the Table.

[3] = tested on: HIV mutant strain 2 (E92Q/E138T/G140S/Q148H); assay: Test Example 2: resistance evaluation test (HeLa-CD4 reporter), mutant strain 2; assay type: cell-based; conditions: FC=EC50 of mutant strain/EC50 of wild strain; HeLa-CD4 cells
Protocol: as §1, §2, §3, §4

[4] = pooled human liver microsomes, 30 min at 37° C., NADPH, compound concentration 0.5 μmol/L
[5] = human, microsomes, 0.5 h, 0.5 μmol/L, pH 7.4

Compound	Remaining percentage [1, 4]	FC in respect of mutant strain 1 (E138K/G140S/Q148H/N155H) [2]	FC in respect of mutant strain 2 (E92Q/E138T/G140S/Q148H) [3]	Remaining percentage [1, 5]
CC(C)N1C(=O)c2c(O)c(=O)c(C(=O)NCc3ccc(F)cc3F)cn2N2CCOC[C@@H]12 [II-021]	87.5%	8.1	14	
CN1C(=O)c2c(O)c(=O)c(C(=O)NCc3cccc(Cl)c3F)cn2N2[C@H]3COC[C@H]3C[C@@H]12 [II-132]		76	17	101%
CCN1C(=O)c2c(O)c(=O)c(C(=O)NCc3c(F)cc(F)cc3F)cn2N2C[C@@H]3CC[C@@H](C3)[C@@H]12 [II-014]	74.3%	5.7	7.3	
CCN1C(=O)c2c(O)c(=O)c(C(=O)NCc3ccc(F)cc3F)cn2N2C[C@@H]3CC[C@@H](O3)[C@@H]12 [II-088]	101%	47	45	
CCN1C(=O)c2c(O)c(=O)c(C(=O)NCc3ccc(F)nc3F)cn2N2C[C@@H]3CC[C@@H](O3)[C@@H]12 [II-152]	105%	36	25	
CCN1C(=O)c2c(O)c(=O)c(C(=O)NCc3ccc(F)cc3)cn2N2CCCC[C@@H]12 [II-070]	100%	32	36	
CCN1C(=O)c2c(O)c(=O)c(C(=O)NCc3ccc(F)cc3F)cn2N2[C@H]3COC[C@H]3C[C@@H]12 [II-038]		78	110	77.2%
COC[C@@H]1CC[C@H]2N(C(C)C)C(=O)c3c(O)c(=O)c(C(=O)NCc4ccccc4F)cn3N12 [II-005]	80.8%	4.6	7.7	
CCN1C(=O)c2c(O)c(=O)c(C(=O)NCc3ccc(F)cc3F)cn2N2CC[C@H](C)C[C@@H]12 [II-064]	104%	27	22	
CCN1C(=O)c2c(O)c(=O)c(C(=O)NCc3c(F)cc(F)cc3F)cn2N2CCCC[C@@H]12 [Compound I-016]	88%	13	10	
CN1C(=O)c2c(O)c(=O)c(C(=O)NCc3cccc(Cl)c3F)cn2N2CCOC[C@@H]12 [II-094]	97.2%	50	27	
CCN1C(=O)c2c(O)c(=O)c(C(=O)NCc3ccc(F)cc3F)cn2N2[C@H](COC)CC[C@@H]12 [II-084]	97.5%	39	38	
C[C@H]1CC[C@H]2N(C)C(=O)c3c(O)c(=O)c(C(=O)NCc4cccc(Cl)c4F)cn3N2C1 [II-019]	84.1%	7.3	7	
CN1C(=O)c2c(O)c(=O)c(C(=O)NCc3cccc(F)c3F)cn2N2CCCC[C@@H]12 [II-091]	96.9%	48	17	
CCN1C(=O)c2c(O)c(=O)c(C(=O)NCc3ccc(F)cc3F)cn2N2CCCC[C@@]12C [Compound I-024]	92.5%	24	16	
CCN1C(=O)c2c(O)c(=O)c(C(=O)NCc3ccc(F)cc3F)cn2N2C[C@@H]3CCC[C@@H](C3)[C@@H]12 [II-013]	77.6%	6.1	8.7	
CCN1C(=O)c2c(O)c(=O)c(C(=O)NCc3ccc(F)cc3F)cn2N2C[C@H](COC)C[C@@H]12 [II-039]	84.3%	48	62	
CN1C(=O)c2c(O)c(=O)c(C(=O)NCc3cccc(Cl)c3F)cn2N2C[C@@H]3CC[C@@H](C3)[C@@H]12 [II-023]	74.2%	9.9	15	
CC(C)N1C(=O)c2c(O)c(=O)c(C(=O)NCc3ccc(F)cc3F)cn2N2C[C@@H]3CC[C@@H](O3)[C@@H]12 [II-016]	89.1%	6.6	9	
CCN1C(=O)c2c(O)c(=O)c(C(=O)NCc3ccc(F)cc3F)cn2N2C[C@@H](COC)C[C@@H]12 [II-056]	94.3%	15	28	
CCN1C(=O)c2c(O)c(=O)c(C(=O)NCc3c(F)cc(F)cc3F)cn2N2C[C@@H](C)C[C@@H]12 [II-043]	83.2%	18	17	
CCN1C(=O)c2c(O)c(=O)c(C(=O)NCc3c(F)cc(F)cc3F)cn2N2C[C@@H]3CC[C@@H](O3)[C@@H]12 [II-041]	88.4%	17	28	
CC(C)N1C(=O)c2c(O)c(=O)c(C(=O)NCc3c(F)cc(F)cc3F)cn2N2[C@H]3COC[C@H]3C[C@@H]12 [II-133]		17	34	73.3%
CN1C(=O)c2c(O)c(=O)c(C(=O)NCc3c(F)cc(F)cc3F)cn2N2CCCC[C@@H]12 [II-089]	105%	38	14	
CN1C(=O)c2c(O)c(=O)c(C(=O)NCc3cccc(Cl)c3F)cn2N2CCCC[C@@]12C [II-129]	88.6%	44	26	
CC(C)N1C(=O)c2c(O)c(=O)c(C(=O)NCc3c(F)cc(F)cc3F)cn2N2C[C@@H]3CC[C@@H](O3)[C@@H]12 [II-002]	80.2%	3.1	7.4	
CN1C(=O)c2c(O)c(=O)c(C(=O)NCc3cccc(Cl)c3F)cn2N2C[C@@H]3CCC[C@@H](C3)[C@@H]12 [II-139]	75.4%	18	10	
C[C@H]1CC[C@H]2N(C)C(=O)c3c(O)c(=O)c(C(=O)NCc4ccc(Cl)cc4F)cn3N2C1 [II-063]	95.7%	38	25	
